Measured values from paper PMC7406541, “Vectorial transport of the arginine derivatives asymmetric dimethylarginine (ADMA) and L-homoarginine by OATP4C1 and P-glycoprotein studied in double-transfected MDCK cells” (Amino Acids, 2020).

Assays:
CAT1 = tested on: CAT1; set-up: method as in Chafai et al. [2017]; settings: ref Chafai et al. [2017]; read-out: Km value for CAT1-mediated uptake; cited from earlier work
OATP4C1 = tested on: OATP4C1; set-up: method as in Taghikhani et al. [2019]; settings: ref Taghikhani et al. [2019]; read-out: Km value as substrate of OATP4C1; cited from earlier work
human P-gp = human P-gp (Homo sapiens, UniProt P08183); experiment: Transcellular basal to apical (vectorial) transport across MDCK-P-gp cell monolayers; settings: for Average ratio of vectorial transport (relative to MDCK-VC cells): MDCK-P-gp, 1 h incubation
Sequence of human P-gp (P08183 whole entry): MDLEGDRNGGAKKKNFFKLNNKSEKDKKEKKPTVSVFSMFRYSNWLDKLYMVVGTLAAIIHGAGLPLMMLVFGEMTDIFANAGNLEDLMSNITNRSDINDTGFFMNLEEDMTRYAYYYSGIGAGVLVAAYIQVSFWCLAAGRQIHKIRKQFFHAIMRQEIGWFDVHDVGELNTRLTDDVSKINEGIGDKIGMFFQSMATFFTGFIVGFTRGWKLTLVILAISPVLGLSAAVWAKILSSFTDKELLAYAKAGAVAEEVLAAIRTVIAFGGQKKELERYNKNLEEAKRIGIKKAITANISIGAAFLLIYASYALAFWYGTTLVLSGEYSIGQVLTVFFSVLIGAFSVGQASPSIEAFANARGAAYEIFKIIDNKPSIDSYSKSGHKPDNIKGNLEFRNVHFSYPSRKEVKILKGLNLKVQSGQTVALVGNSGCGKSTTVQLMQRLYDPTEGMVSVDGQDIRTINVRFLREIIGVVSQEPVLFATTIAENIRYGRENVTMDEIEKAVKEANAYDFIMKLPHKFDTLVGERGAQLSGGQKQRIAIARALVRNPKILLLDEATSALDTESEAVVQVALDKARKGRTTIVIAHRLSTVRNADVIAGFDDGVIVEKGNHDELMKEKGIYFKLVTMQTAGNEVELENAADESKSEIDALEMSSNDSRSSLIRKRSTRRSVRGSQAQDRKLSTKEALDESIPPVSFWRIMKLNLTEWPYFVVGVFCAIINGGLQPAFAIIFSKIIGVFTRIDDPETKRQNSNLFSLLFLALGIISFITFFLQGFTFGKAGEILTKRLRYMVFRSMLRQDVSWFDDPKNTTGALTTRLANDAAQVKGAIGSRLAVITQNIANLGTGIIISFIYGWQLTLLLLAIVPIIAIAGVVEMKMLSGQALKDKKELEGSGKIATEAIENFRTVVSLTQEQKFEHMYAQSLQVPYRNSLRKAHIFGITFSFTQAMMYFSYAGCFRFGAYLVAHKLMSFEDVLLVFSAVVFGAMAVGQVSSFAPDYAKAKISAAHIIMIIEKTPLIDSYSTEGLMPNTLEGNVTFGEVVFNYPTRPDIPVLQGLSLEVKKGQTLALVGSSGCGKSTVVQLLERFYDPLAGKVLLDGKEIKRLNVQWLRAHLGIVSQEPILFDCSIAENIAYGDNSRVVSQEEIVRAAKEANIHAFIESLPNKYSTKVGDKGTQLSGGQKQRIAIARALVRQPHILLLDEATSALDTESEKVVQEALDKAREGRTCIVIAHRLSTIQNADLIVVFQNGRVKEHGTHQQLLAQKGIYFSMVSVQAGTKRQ

human OATP4C1 = experiment: Transcellular basal to apical (vectorial) transport across MDCK-OATP4C1 cell monolayers; settings: 1 h incubation
[1] = tested on: human OATP4C1 and human P-gp; experiment: Transcellular basal to apical (vectorial) transport across double-transfected MDCK-OATP4C1-P-gp cell monolayers; settings: for Time-dependent transcellular transport in MDCK-OATP4C1-P-gp cells compared to the other tested cell lines: all time points 1, 2, 3 and 4 h; for Transport ratio MDCK-OATP4C1-P-gp/MDCK-VC: 50 µM, basolateral to apical; for Average ratio of vectorial transport (relative to MDCK-VC cells): MDCK-OATP4C1-P-gp, 1 h incubation
MDCK-VC cells = experiment: Transcellular basal to apical transport across MDCK-VC control cell monolayers; format: in vitro ADME; settings: 1 µM, 1 h
Protocol: Transcellular transport in MDCK-OATP4C1-P-gp double-transfectants and respective MDCK-OATP4C1 and MDCK-P-gp single-transfectants as well as in the MDCK-VC control cell line was analyzed as previously described (Taghikhani et al. [2017]). Cells were cultured in Transwell membrane inserts (14 mm diameter, 0.4 µm pore size; Greiner Bio-One, Frickenhausen, Germany) in an initial density of 5 × 10^5 cells/well. Cells were cultivated at 37 °C for 48 h before inducing them by replacing the medium with fresh medium containing 10 mM of sodium butyrate. After 24 h of further incubation, cells were used for transcellular transport studies.
To study the transcellular transport, cells were washed with pre-warmed (37 °C) uptake buffer applied to both the basolateral and apical compartment. […] After incubating the cells for stated time points, the amount of radioactivity on the apical compartment was measured by liquid scintillation counting.
Concentration dependency of transcellular transport of ADMA and L-homoarginine was studied by applying the respective compound in concentrations of 1, 20, 50 and 100 µM on the basolateral compartment of MDCK transfectants. […] Cells were lysed and the cellular protein content was quantified as described. 400 µl (or 80 µl for time-dependency analysis) of the applied donor solutions were also analyzed by scintillation counting as reference. […]

[2] = set-up: method as in Kielstein et al. [2009]; settings: ref Kielstein et al. [2009]; cited from earlier work

| SMILES | Average ratio of vectorial transport (relative to MDCK-VC cells) (human P-gp; 1 µM basal) | Average ratio of vectorial transport (relative to MDCK-VC cells) (human P-gp; 20 µM basal) | Average ratio of vectorial transport (relative to MDCK-VC cells) (human P-gp; 50 µM basal) | Average ratio of vectorial transport (relative to MDCK-VC cells) (human P-gp; 100 µM basal) | Average ratio of vectorial transport (relative to MDCK-VC cells) (human OATP4C1; 1 µM basal) | Average ratio of vectorial transport (relative to MDCK-VC cells) (human OATP4C1; 20 µM basal) | Average ratio of vectorial transport (relative to MDCK-VC cells) (human OATP4C1; 50 µM basal) | Average ratio of vectorial transport (relative to MDCK-VC cells) (human OATP4C1; 100 µM basal) | Time-dependent transcellular transport in MDCK-OATP4C1-P-gp cells compared to the other tested cell lines ([1]; 1 µM) | Transport ratio MDCK-OATP4C1-P-gp/MDCK-VC [1] [fold] | Average ratio of vectorial transport (relative to MDCK-VC cells) ([1]; 1 µM basal) | Average ratio of vectorial transport (relative to MDCK-VC cells) ([1]; 20 µM basal) | Average ratio of vectorial transport (relative to MDCK-VC cells) ([1]; 50 µM basal) | Average ratio of vectorial transport (relative to MDCK-VC cells) ([1]; 100 µM basal) | other results |
| --- | --- | --- | --- | --- | --- | --- | --- | --- | --- | --- | --- | --- | --- | --- | --- |
| NC(N)=NCCCC[C@H](N)C(=O)O [L-homoarginine] | 1.11 | 1.61 | 1.45 | 1.43 | 1.33 | 1.92 | 2.09 | 2.31 | significantly higher | 3.4 | 3.44 | 3.94 | 3.41 | 6.65 | Km (CAT1): 175 µM; Km (OATP4C1): 49.9 µM |
| C[C@H]1O[C@@H](O[C@H]2[C@@H](O)C[C@H](O[C@H]3[C@@H](O)C[C@H](O[C@H]4CC[C@@]5(C)[C@H](CC[C@@H]6[C@@H]5C[C@@H](O)[C@]5(C)[C@@H](C7=CC(=O)OC7)CC[C@]65O)C4)O[C@@H]3C)O[C@@H]2C)C[C@H](O)[C@@H]1O [digoxin, reference compound] |  |  |  |  |  |  |  |  |  |  |  |  |  |  | Transcellular transport in MDCK-P-gp in comparison to MDCK-VC (human P-gp; 5 µM, incubation time 1 h): 1.7 fold |
| CN(C)C(N)=NCCC[C@H](N)C(=O)O [ADMA, asymmetric dimethylarginine] | 1.10 | 1.19 | 1.20 | 1.30 | 1.17 | 1.19 | 1.14 | 1.20 | significantly higher | 2.0 | 1.92 | 1.87 | 2.00 | 1.83 | Transcellular transport rate (MDCK-VC cells): 4.8 ± 0.4 pmol × mg protein^−1 × min^−1; Share excreted unchanged into urine [2]: 20%; Share taken up into proximal tubule cells that is metabolized (e.g. by DDAH1) [2]: ~80%; Transport ratio MDCK-OATP4C1-P-gp vs MDCK-VC ([1]; 1 µM, 1 h): 1.92 fold; Transcellular transport rate ([1]; MDCK-OATP4C1-P-gp cells, 1 µM, basal to apical, 1 h): 9.2 ± 1.2 pmol × mg protein^−1 × min^−1 |
